From patent US11278682B2, “Device and method for aerosolized delivery of substance to a natural orifice of the body” (SIPNOSE LTD., priority 2014, dated 2022)
“Also recorded” adds a separate entry of the source.

What was measured:
[1] = test system: patients; test: Midazolam pre-medication sedation (BIS EEG monitoring), 3 mg, SipNose vs commercial nasal pump; format: in vivo, human; details: for failures in inducing anesthesia: both comparisons pooled (3 mg and 1.4 mg)
Method: A comparison was made of the efficacy of delivery of the anesthetic Midazolam, when used for pre-medication, between an embodiment of the SipNose device of the present invention and a prior-art device, the commercial nasal pump based on positive displacement (as the pump used for Alrin™ delivery) and the MAD Nasal from Wolfe Tory.
Comparison with nasal pump (using 5 mg/ml solution): For a pre-medication procedure with commercial nasal pump (positive displacement pump), in order to achieve the desired dose of 3 mg Midazolam, the delivery device was inserted into a nostril and an aliquot of Midazolam is delivered. The delivery device is then inserted into the opposite nostril and a second aliquot of Midazolam is delivered. This is repeated twice more with a 30 s intervals between each cycle, for a total of six aliquots of Midazolam, three in each nostril. As opposed to that, for a SipNose device delivery, a single dose of 0.6 ml was delivered to one nostril.
In order to determine the efficacy of anesthetization a BIS EEG monitoring was used, where the BIS values for brain activity are calculated from the EEG activity. Awake, unsedated individuals typically have BIS values ≥97. Mildly sedated individuals typically have BIS values in the 80's, moderately sedated individuals typically have BIS values in the 70's, while fully sedated individuals typically have BIS values below about 70; BIS values between about 45 and about 60 are commonly used for general anesthesia during the maintenance phase of an operation.
Two comparisons were made between the commercial device and the present, SipNose, device. In the first, 3 mg of Midazolam was administered and the commercial device was a commercial nasal pump (positive displacement), in the second, 1.4 mg of Midazolam was administered and the commercial device was a MAD applicator.

[2] = test system: Sprague-Dawley (SD) rats; test: Safety and toxicity of intranasal Midazolam via SipNose device; format: in vivo, rat
Method: Safety and possible adverse effects (toxicity) were assessed the safety and toxicity including adverse effects of Midazolam following intranasal administration via SipNose dedicated device to Sprague-Dawley (SD) rats.
A total of 78 SD rats (39 female and 39 male) were utilized. The animals were divided into four groups of 3 or 12 female rats and 3 or 12 male rats. At each of the times 6 hrs, 24 hrs, 7 days, and 14 days, three males and three females were sacrificed.
The test material was a commercially available injectable Midazolam.
The day of dosing was Day 1 and termination days were Day 1 (6 hrs), Day 2 (24 hrs), Day 8 and Day 15.
Each test material or vehicle dose was administrated to three female and three male rats at each of the above times. The administration was performed intranasally (IN) via a SipNose device. The dose volume was 25-125 μl per naris (50-250 μl total per rat). Dosing was performed in an escalating fashion, each increase in dose depending on the outcome of the previous dose. The time between increasing doses was approximately half an hour.
Dosing was performed in a staggered fashion, each increase in dose pending on the outcome of the previous dose. The lag time between the increasing doses was approximately half an hour. The maximum dose was five times the clinical dose in order to determine a maximum tolerated dose.
The test material and vehicle were administered IN once via a SipNose device at a dose volume of 50-250 μl to non-fasting animals.
Animals were observed individually at least once during the first 30 minutes alter dosing and daily thereafter, for a total of 1, 7, or 14 days (according to time of sacrifice for histological observation). All observations were systematically recorded and individual records were maintained for each animal.
Body weight was monitored one day after the animals' arrival, prior to administration of the test material and twice a week thereafter (days 4, 8, 10 and 15) for a total of 5 times.
Clinical signs were observed daily, at least once during the first 30 min after dosing, periodically during the first 24 h, with special attention during the first 4 h, and once daily thereafter.
Animals were sacrificed by carbon dioxide asphyxiation and gross pathology was performed examining the major tissue and organ systems. All animals were subjected to gross necropsy.
The tissue samples from groups 1, 2, 3 and 4 (M+F) were embedded, sectioned and mounted on slides. The tissue sections were stained with Hematoxylin & Eosin (H&E).
Three cross sections of the skull and brain were taken: (1) in the nose from rostral area, (2) behind the incisor teeth and (3) in the caudal area including the olfactory epithelium labyrinth (FIG. 85). The brain was dissected in the olfactory regions, hippocampus, cerebellum and brain stem. The lungs were evaluated in both right and left lobes. The inflammatory status in the tissue samples were evaluated using the following parameters.
• Grade 0: No inflammation • Grade 1: Mild (few inflammatory cells, 10-20 per ×40 high-power field) • Grade 2: moderate (more inflammatory cells, 20-50 per ×40 high-power field), • Grade 3: severe (many inflammatory cells, more than 50 per ×40 high-power field).

[3] = test system: New Zealand White female rabbits; test: Nasal cavity irritation and general toxicity of repeated intra-nasal Midazolam
Method: Nasal cavity irritation and general toxicity were assessed for repeated intra-nasal applications of Midazolam to rabbits, using a SipNose intra-nasal delivery device. Six New Zealand White female rabbits were used, with the three experimental animals being given two 200 μL doses of Midazolam (5 mg/ml) per day, six hours apart. The three control animals were given four 200 μL doses of saline solution per day, at 3 hour intervals.
The daily dosing was repeated for 10 days, for 11 days' dosage in total. 24 hours after the last dosing, the animals were sacrificed.
The animals were observed once daily until study termination. Shortly before sacrifice, blood was taken for testing.
After sacrifice, gross pathology was performed, examining major tissue and organ systems. Organs (nasal cavity (including olfactory epithelium), nasopharynx, paranasal sinus, trachea, lungs, larynx, brain (olfactory bulbs and hippocampus), heart, olfactory nerve, optic nerve and lacrimal glands) of all animals were harvested and examined. Three cross sections of the skull were taken: (1) in the nose from rostral, (2) behind the incisor teeth and (3) caudal, including the olfactory epithelium labyrinth, as shown in FIG. 85.
Brains were dissected in the olfactory regions and the hippocampus. Lungs were evaluated in both right and left lobes. Tissues were trimmed, embedded in paraffin, sectioned at no more than 5 microns thickness, and stained with Hematoxylin & Eosin (H&E).
In order to alleviate the discomfort an animal might endure during intra-nasal administration, prior to placement the sipNose device, Lidocaine was applied locally in the nasal area.

[4] = commercial nasal pump, 3 mg Midazolam

Cc1ncc2n1-c1ccc(Cl)cc1C(c1ccccc1F)=NC2 [Midazolam]
Adverse events ([1]; SipNose device, 3 mg Midazolam): 0
Level of minimum BIS ([1]; SipNose device, 3 mg Midazolam): 74.5±9
Mean onset time ([1]; SipNose device, 3 mg Midazolam): 5.9 ± 4.6 min
level of Maximum BIS ([1]; SipNose device, 3 mg Midazolam): 97
sleep score (1 not sleepy, 2 sleepy or calm, 3 sleeping) ([1]; SipNose device, 3 mg Midazolam): 3
Number of Positive Sedations ([1]; SipNose device, 3 mg Midazolam, 8 patients): 8
failures in inducing anesthesia ([1]; SipNose device): no failures in 10 patients
sleep score (1 not sleepy, 2 sleepy or calm, 3 sleeping) ([1]; commercial device (nasal pump), 3 mg Midazolam): less than 2
failures in inducing anesthesia ([1]; commercial devices): 2 failures and one partial failure in 6 patients
Adverse events [1, 4]: 0
Level of minimum BIS [1, 4]: 87.5±5.3
Mean onset time [1, 4]: 6.7 ± 4.6 min
Minimum BIS excluding failure [1, 4]: 85
level of Maximum BIS [1, 4]: 97
Number of Positive Sedations ([1]; commercial nasal pump, 3 mg Midazolam, 4 patients): 3
death of neurons in the brain ([2]; SD rats, Midazolam treated groups): No death of neurons was detected
adverse effects or histopathological findings in examined tissues ([2]; SD rats, both tested doses (clinical dose and five times clinical dose)): no adverse effects or histopathological findings; also recorded: no pathological abnormalities were found
very mild inflammation in most caudal cross section of the nose ([2]; SD rats, seen in saline and Midazolam groups, 12 out of 42 animals): most probably not drug-related
clinical signs ([2]; SD rats, single intranasal dose via SipNose, up to 14 days): No abnormal clinical signs were detected
weight gain vs control group ([2]; female rats, five times the clinical dose, days 10 and 15): statistically significant greater weight gain
body weight increase vs control group ([2]; male rats, clinical dose of Midazolam, at several times): statistically significant greater increase in weight
Amylase (blood chemistry) ([3]; Midazolam group): 240±13.1 IU/L
all relevant safety parameters (clinical observations, histopathology, ophthalmic examination, haematology, blood analysis) ([3]; Midazolam vs control): no differences were found between the control and study groups
blood coagulation parameters ([3]; Midazolam vs control group): No differences were detected
histopathology ([3]; either group): No major histopathological abnormalities were found
blood chemistry analysis, all results ([3]; repeated intra-nasal Midazolam): within the normal range for the blood of rabbits
blood hematology analysis ([3]; repeated intra-nasal Midazolam vs saline control): None of the parameters showed any difference between the control group and the study group
body weight during the study ([3]; two 200 μL doses of Midazolam (5 mg/ml) per day via SipNose, repeated daily): did not exhibit major changes in weight
finding in frontal nose space ([3]; two animals from the Midazolam group, attributed to device tip): very mild bleeding was detected in the frontal nose space
